Test results taken from the supplement of paper PMC6718421.

Tested on: Caenorhabditis elegans
Assay: animals per well after 6 days (50 L1 seeded); higher = more viable animals (less toxic)
Protocol: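 About 50 synchronized L1s per well were grown in liquid NGM with E. coli HB101 and twofold serial dilutions (0.12-120 uM) of crystal- or sphere-forming wactives for 6 days at 20 C; animals per well were counted, and overgrown wells (>50 animals) were scored as 100. Values are averages of replicate wells for wild type and sms-5(ok2498).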

CCCc1nc(-c2ccc(-c3ccc(F)cc3)cc2)no1 [wact-390]
animals per well
Conditions | genotype: sms-5(ok2498) | genotype: wild type N2
0.1171875 µM | > 100 | > 100
0.234375 µM | > 100 | > 100
0.46875 µM | > 100 | > 100
0.9375 µM | > 100 | > 100
1.875 µM | > 100 | 56.2
3.75 µM | > 100 | 4.83
7.5 µM | > 100 | 3.33
15 µM | > 100 | 2.83
30 µM | > 100 | 2.33
60 µM | > 100 | 0.333
120 µM | 92.7 | 0.667
